Measurements as given in patent US9115143B2, “Substituted indole derivatives as gamma secretase modulators” (Janssen Pharmaceuticals, Inc., priority 2011, dated 2015).

Key:
[1] = tested on: Aβ42; test: Screening for γ-secretase-modulating activity: Aβ42 in supernatant of SKNBE2 cells carrying hAPP 695 wild type (Alphalisa); format: cell-based, human; settings: overnight incubation, Alphalisa on supernatant
Method in brief: (§1)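 Secreted Aβ42 (C-terminal/N-terminal antibody pair) and Aβtotal (N-terminal/mid-region pair) were quantified by AlphaLISA after overnight compound exposure of wild-type hAPP 695 SKNBE2 cells at 37 °C. Values expressed relative to compound-free maximum, with IC50 from nonlinear 4-parameter regression.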

[2] = tested on: Aβtotal; test: Screening for γ-secretase-modulating activity: Aβtotal in supernatant of SKNBE2 cells carrying hAPP 695 wild type (Alphalisa); format: cell-based, human; settings: overnight incubation, Alphalisa on supernatant
Method in brief: as §1

[3] = Homo sapiens, SKNBE2, SKNBE2 human neuroblastoma cells carrying hAPP 695 wild type
[4] = SKNBE2 human neuroblastoma cells carrying hAPP 695 wild type

melting point [°C] | IC50 [1, 3] [nM] | IC50 [2, 3] [nM] | IC50 [1, 4] [nM] | IC50 [2, 4] [nM] | Structure (SMILES)
264.9 | 398 | > 10000 | – | – | Cc1ccccc1C1CCCn2nc(-c3cc4nc(C#N)ccc4[nH]3)nc21 (stereo not drawn) [Compound 25, 2-[5,6,7,8-tetrahydro-8-(2-methylphenyl)[1,2,4]triazolo[1,5-a]pyridin-2-yl]-1H-pyrrolo[3,2-b]pyridine-5-carbonitrile]
272.3 | 331 | > 10000 | – | – | N#Cc1ccc2[nH]c(-c3nc4n(n3)CCCC4c3ccccc3C(F)(F)F)cc2n1 (stereo not drawn) [Compound 26, 2-[5,6,7,8-tetrahydro-8-[2-(trifluoromethyl)phenyl][1,2,4]triazolo[1,5-a]pyridin-2-yl]-1H-pyrrolo[3,2-b]pyridine-5-carbonitrile]
183 | 4790 | > 15100 | – | – | COc1ccc2[nH]c(-c3nc4n(n3)CCCC4c3ccccc3C(F)(F)F)cc2c1 (stereo not drawn) [Compound 29, 5,6,7,8-tetrahydro-2-(5-methoxy-1H-indol-2-yl)-8-[2-(trifluoromethyl)phenyl]-[1,2,4]triazolo[1,5-a]pyridine]
223.8 | 76 | > 10000 | – | – | Cc1ccccc1C1CCCn2nc(-c3cc4cc(-c5cnn(C)c5)ccc4[nH]3)nc21 (stereo not drawn) [Compound 31, 5,6,7,8-tetrahydro-8-(2-methylphenyl)-2-[5-(1-methyl-1H-pyrazol-4-yl)-1H-indol-2-yl]-[1,2,4]triazolo[1,5-a]pyridine]
252.2 | 871 | > 10000 | – | – | N#Cc1ccc2[nH]c(-c3nc4n(n3)CCCC4c3ccccc3C(F)(F)F)nc2c1 (stereo not drawn) [Compound 38, 2-[5,6,7,8-tetrahydro-8-[2-(trifluoromethyl)phenyl][1,2,4]triazolo[1,5-a]pyridin-2-yl]-1H-benzimidazole-5-carbonitrile]
244.4 | – | – | 1020 | > 10000 | COc1c(C#N)ccc2[nH]c(-c3cn4c(n3)C(c3ccc(F)cc3C)OCC4)cc12 (stereo not drawn) [Compound 48, 2-[8-(4-fluoro-2-methylphenyl)-5,6-dihydro-8H-imidazo[2,1-c][1,4]oxazin-2-yl]-4-methoxy-1H-indole-5-carbonitrile]
255.6 | – | – | 708 | > 10000 | COc1c(C#N)ccc2[nH]c(-c3cn4c(n3)C(c3ccccc3Cl)OCC4)cc12 (stereo not drawn) [Compound 51, 2-[8-(2-chlorophenyl)-5,6-dihydro-8H-imidazo[2,1-c][1,4]oxazin-2-yl]-4-methoxy-1H-indole-5-carbonitrile]
175.7 | 3980 | > 10000 | – | – | N#Cc1ccc2cc(-c3nc4n(n3)CCCC4c3ccccc3C(F)(F)F)[nH]c2c1 (stereo not drawn) [Compound 61, 2-[5,6,7,8-tetrahydro-8-[2-(trifluoromethyl)phenyl][1,2,4]triazolo[1,5-a]pyridin-2-yl]-1H-indole-6-carbonitrile]
208.6 | 245 | > 10000 | – | – | N#Cc1ccc2[nH]c(-c3nc4n(n3)CCCC4c3ccccc3Cl)cc2c1 (stereo not drawn) [Compound 62, 2-[8-(2-chlorophenyl)-5,6,7,8-tetrahydro[1,2,4]triazolo[1,5-a]pyridin-2-yl]-1H-indole-5-carbonitrile]
251 | 501 | > 10000 | – | – | COc1ccccc1C1CCCn2cc(-c3cc4cc(C#N)ccc4[nH]3)nc21 (stereo not drawn) [Compound 67, 2-[5,6,7,8-tetrahydro-8-(2-methoxyphenyl)imidazo[1,2-a]pyridin-2-yl]-1H-indole-5-carbonitrile]
255.5 | 126 | > 10000 | – | – | Cc1cc(F)ccc1C1CCCn2cc(-c3cc4cc(C#N)ncc4[nH]3)nc21 (stereo not drawn) [Compound 72, 2-[8-(4-fluoro-2-methylphenyl)-5,6,7,8-tetrahydroimidazo[1,2-a]pyridin-2-yl]-1H-pyrrolo[2,3-c]pyridine-5-carbonitrile]
191.8 | 26 | > 10000 | – | – | Cc1cc(-c2ccc3[nH]c(-c4cn5c(n4)C(c4ccc(F)cc4C)OCC5)cc3c2)ccn1 (stereo not drawn) [Compound 103, 8-(4-fluoro-2-methylphenyl)-5,6-dihydro-2-[5-(2-methyl-4-pyridinyl)-1H-indol-2-yl]-8H-imidazo[2,1-c][1,4]oxazine]
296.2 | – | – | 1620 | > 10000 | COc1c(C#N)ccc2[nH]c(-c3cn4c(n3)C(c3c(C)cccc3F)OCC4)cc12 (stereo not drawn) [Compound 139, 2-[8-(2-fluoro-6-methylphenyl)-5,6-dihydro-8H-imidazo[2,1-c][1,4]oxazin-2-yl]-4-methoxy-1H-indole-5-carbonitrile]

The next lines start with the compound.

Structure (SMILES) | melting point [°C] | IC50 [1, 3] [nM] | IC50 [2, 3] [nM] | IC50 [1, 4] [nM] | IC50 [2, 4] [nM]
Cc1cc(F)ccc1C1CCCn2nc(-c3cc4nc(-c5cnn(C)c5)ccc4[nH]3)nc21 (stereo not drawn) [Compound 32, 8-(4-fluoro-2-methylphenyl)-5,6,7,8-tetrahydro-2-[5-(1-methyl-1H-pyrazol-4-yl)-1H-pyrrolo[3,2-b]pyridin-2-yl]-[1,2,4]triazolo[1,5-a]pyridine] | 281.7 | – | > 10000 | 148 | –
Cc1cc(-c2ccc3[nH]c(-c4nc5n(n4)CCCC5c4ccc(F)cc4C)cc3n2)ccn1 (stereo not drawn) [Compound 33, 8-(4-fluoro-2-methylphenyl)-5,6,7,8-tetrahydro-2-[5-(2-methyl-4-pyridinyl)-1H-pyrrolo[3,2-b]pyridin-2-yl]-[1,2,4]triazolo[1,5-a]pyridine] | 267.2 | 49 | > 10000 | – | –
Cc1cn(-c2ccc3[nH]c(-c4nc5n(n4)CCOC5c4cccc(F)c4C)cc3c2)cn1 (stereo not drawn) [Compound 36, 8-(3-fluoro-2-methylphenyl)-5,6-dihydro-2-[5-(4-methyl-1H-imidazol-1-yl)-1H-indol-2-yl]-8H-[1,2,4]triazolo[5,1-c][1,4]oxazine] | 261.3 | 62 | > 10000 | – | –
COc1c(C#N)ccc2[nH]c(-c3nc4n(n3)CCCC4(O)c3ccc(F)cc3C)cc12 (stereo not drawn) [Compound 60, 2-[8-(4-fluoro-2-methylphenyl)-5,6,7,8-tetrahydro-8-hydroxy[1,2,4]triazolo[1,5-a]pyridin-2-yl]-4-methoxy-1H-indole-5-carbonitrile] | 287.1 | 138 | > 10000 | – | –
Cc1cn(-c2ccc3[nH]c(-c4nc5n(n4)CCOC5c4ccc(F)cc4C(C)C)cc3c2)cn1 (stereo not drawn) [Compound 100, 8-[4-fluoro-2-(1-methylethyl)phenyl]-5,6-dihydro-2-[5-(4-methyl-1H-imidazol-1-yl)-1H-indol-2-yl]-8H-[1,2,4]triazolo[5,1-c][1,4]oxazine] | 297.5 | 48 | > 10000 | – | –
CCc1cc(F)ccc1C1OCCn2nc(-c3cc4cc(-n5cnc(C)c5)ccc4[nH]3)nc21 (stereo not drawn) [Compound 105, 8-(2-ethyl-4-fluorophenyl)-5,6-dihydro-2-[5-(4-methyl-1H-imidazol-1-yl)-1H-indol-2-yl]-8H-[1,2,4]triazolo[5,1-c][1,4]oxazine] | 285.7 | 34 | > 10000 | – | –
Cc1cc(F)ccc1C1OCCn2nc(-c3cc4nc(-c5cnn(C)c5)ccc4[nH]3)nc21 (stereo not drawn) [Compound 106, 8-(4-fluoro-2-methylphenyl)-5,6-dihydro-2-[5-(1-methyl-1H-pyrazol-4-yl)-1H-pyrrolo[3,2-b]pyridin-2-yl]-8H-[1,2,4]triazolo[5,1-c][1,4]oxazine] | 263.8 | 447 | > 10000 | – | –
COc1c(C#N)ccc2[nH]c(-c3nc4n(n3)CCOC4c3ccc(F)cc3C)cc12 (stereo not drawn) [Compound 115, 2-[8-(4-fluoro-2-methylphenyl)-5,6-dihydro-8H-[1,2,4]triazolo[5,1-c][1,4]oxazin-2-yl]-4-methoxy-1H-indole-5-carbonitrile] | 257.4 | – | – | 1480 | > 10000
Cc1cn(-c2ccc3[nH]c(-c4nc5n(n4)CCOC5c4cc(F)c(F)c(C)c4C)cc3c2)cn1 (stereo not drawn) [Compound 116, 8-(4,5-difluoro-2,3-dimethylphenyl)-5,6-dihydro-2-[5-(4-methyl-1H-imidazol-1-yl)-1H-indol-2-yl]-8H-[1,2,4]triazolo[5,1-c][1,4]oxazine] | 285.1 | 33 | > 10000 | – | –
COc1c(C#N)ccc2[nH]c(-c3nc4n(n3)CCOC4c3ccccc3Cl)cc12 (stereo not drawn) [Compound 137, 2-[8-(2-chlorophenyl)-5,6-dihydro-8H-[1,2,4]triazolo[5,1-c][1,4]oxazin-2-yl]-4-methoxy-1H-indole-5-carbonitrile] | 197.5 | – | – | 49 | > 10000
COc1c(C#N)ccc2[nH]c(-c3nc4n(n3)CCOC4c3c(C)cccc3F)cc12 (stereo not drawn) [Compound 141, 2-[8-(2-fluoro-6-methylphenyl)-5,6-dihydro-8H-[1,2,4]triazolo[5,1-c][1,4]oxazin-2-yl]-4-methoxy-1H-indole-5-carbonitrile] | 244.4 | – | – | 28 | > 10000
COc1c(C#N)ccc2[nH]c(-c3nc4n(n3)CCOC4c3c(C)cccc3F)cc12 (stereo not drawn) [Compound 142, 2-[8-(2-fluoro-6-methylphenyl)-5,6-dihydro-8H-[1,2,4]triazolo[5,1-c][1,4]oxazin-2-yl]-4-methoxy-1H-indole-5-carbonitrile] | 244.8 | – | – | 2820 | > 10000
COc1c(C#N)ccc2[nH]c(-c3nc4n(n3)CCOC4c3cccc(F)c3C)cc12 (stereo not drawn) [Compound 150, 2-[8-(3-fluoro-2-methylphenyl)-5,6-dihydro-8H-[1,2,4]triazolo[5,1-c][1,4]oxazin-2-yl]-4-methoxy-1H-indole-5-carbonitrile] | 238.2 | – | – | 2190 | > 10000
